Test results taken from US20190376971A1, “Compositions and Methods for the Assessment of Drug Target Occupancy for Bruton's Tyrosine Kinase” (Acerta Pharma B.V., priority 2017, published 2019).

Target: T1, BTK (Canis lupus familiaris, UniProt A0A8I3P3Z9)
T1 construct: PBMCs are isolated from the blood of dogs by Ficoll Paque procedure; from tissue; host or cells: CD21+ B cells purified from PBMCs of dog blood (dogs with spontaneous lymphoma, dosed orally)
Assay: BTK target occupancy in canine peripheral CD21+ B cells after oral dosing
Assay type: in vivo, dog
Conditions: day 7 prior to repeat dose, 1 day after preceding dose; 2.5 mg/kg once daily, peroral
Description: The following method may be used for the ELISA BTK target occupancy assay. Other variations of this assay are known to those of skill in the art and may also be used. • 1. Coat a 96-well plate (Optiplate, Perkin Elmer, catalog no. 6005290) with 125 ng/well anti-BTK (BD Biosciences catalog no. 611117) in 100 μL PBS, overnight at 4° C. • 2. Wash 2×200 μL/well PBS-Tween 0.05% (PBST). • 3. Block with 245 μL/well PBST+3% bovine serum albumin (BSA), for 2 to 3 hours at room temperature while shaking. • 4. During blocking, incubate samples with acalabrutinib and probe in Eppendorf tubes: • a. Centrifuge cells 5 minutes at 5000 rpm and 4° C. in Eppendorf centrifuge. • b. Remove supernatant, dilute BTK protein or resuspend cell pellet in cold (2-8° C.) lysis buffer (see below). For amount of cells/μL, see detailed protocols for Ramos (Example 6.2), canine B cells (Example 7.2) and human PBMCs (Example 8.2). • c. Incubate on ice for 30 minutes while shaking. Vortex every 10 minutes. • d. Centrifuge for 10 minutes at 14000 rpm and 4° C. in Eppendorf centrifuge. • e. Transfer supernatant to new tube. • f. […] Wash wells 2×245 μL/well PBST. • 6. Add (in duplicate) 100 μL of each sample (with and without Formula (3)) to the wells. • 7. Incubate for 2 hours at room temperature while shaking. • 8. Wash 4×PBST, 200 μL/well. • 9. […]

T1 sequence (A0A8I3P3Z9 1-664): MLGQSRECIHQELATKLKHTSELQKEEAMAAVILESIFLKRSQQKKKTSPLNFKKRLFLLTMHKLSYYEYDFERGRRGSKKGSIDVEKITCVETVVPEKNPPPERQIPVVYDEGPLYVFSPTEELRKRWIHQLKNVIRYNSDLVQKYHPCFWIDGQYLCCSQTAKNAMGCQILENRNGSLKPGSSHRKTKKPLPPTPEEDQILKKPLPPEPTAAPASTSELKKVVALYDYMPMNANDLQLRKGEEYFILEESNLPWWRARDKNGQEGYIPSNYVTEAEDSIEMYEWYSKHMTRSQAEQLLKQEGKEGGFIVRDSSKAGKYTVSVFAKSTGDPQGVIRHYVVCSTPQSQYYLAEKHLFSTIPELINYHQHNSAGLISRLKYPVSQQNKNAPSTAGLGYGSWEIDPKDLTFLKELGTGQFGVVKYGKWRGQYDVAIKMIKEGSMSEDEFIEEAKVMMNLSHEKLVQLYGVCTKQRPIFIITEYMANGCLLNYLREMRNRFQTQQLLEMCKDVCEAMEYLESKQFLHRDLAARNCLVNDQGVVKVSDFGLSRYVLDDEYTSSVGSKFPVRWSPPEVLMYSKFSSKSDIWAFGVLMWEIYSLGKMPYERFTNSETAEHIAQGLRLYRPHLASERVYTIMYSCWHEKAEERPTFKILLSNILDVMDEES

CC#CC(=O)N1CCC[C@H]1c1nc(-c2ccc(C(=O)Nc3ccccn3)cc2)c2c(N)nccn12 [acalabrutinib]
BTK still occupied, percentage of the predose sample: 83%
